Measured values as given in ChEMBL document CHEMBL4706559, “New indolylarylsulfone non-nucleoside reverse transcriptase inhibitors show low nanomolar inhibition of single and double HIV-1 mutant strains” (Eur J Med Chem, 2020).

test system: Human immunodeficiency virus 1; assay: Antiviral activity against HIV1 harboring RT K103N/Y181C double mutant infected in human MT4 cells assessed as protection against virus-induced cytopathic effect by MTT assay; type: functional, organism-based; conditions: Human immunodeficiency virus 1, MT4

| Structure (SMILES) | EC50 [nM] |
| --- | --- |
| Cc1cc(C)cc(S(=O)(=O)c2c(C(=O)NC(C)c3cccc(O)c3)[nH]c3ccc(Cl)cc23)c1 (centres undefined) | 600 |
| Cc1cc(C)cc(S(=O)(=O)c2c(C(=O)NCN3CCCC3)[nH]c3ccc(Cl)cc23)c1 | 300 |
| Cc1cc(C)cc(S(=O)(=O)c2c(C(=O)NC(C)C(N)=O)[nH]c3ccc(Cl)cc23)c1 (centres undefined) | 700 |
| Cc1cc(C)cc(S(=O)(=O)c2c(C(=O)NCc3ccc(O)c(O)c3)[nH]c3ccc(Cl)cc23)c1 | 3240 |
| COc1cc(CNC(=O)c2[nH]c3ccc(Cl)cc3c2S(=O)(=O)c2cc(C)cc(C)c2)ccc1O | 1120 |
| O=C1Nc2ccc(Cl)cc2[C@@](C#CC2CC2)(C(F)(F)F)O1 [EFAVIRENZ] | > 317 |

test system: Human immunodeficiency virus 1; assay: Antiviral activity against HIV1 harboring RT K103N mutant infected in human MT4 cells assessed as protection against virus-induced cytopathic effect by MTT assay; type: functional, organism-based; conditions: Human immunodeficiency virus 1, MT4

| Structure (SMILES) | EC50 [nM] |
| --- | --- |
| Cc1cc(C)cc(S(=O)(=O)c2c(C(=O)NC(C)c3cccc(O)c3)[nH]c3ccc(Cl)cc23)c1 (centres undefined) | < 0.7 |
| Cc1cc(C)cc(S(=O)(=O)c2c(C(=O)NCc3ccc(O)c(O)c3)[nH]c3ccc(Cl)cc23)c1 | < 0.7 |
| COc1cc(CNC(=O)c2[nH]c3ccc(Cl)cc3c2S(=O)(=O)c2cc(C)cc(C)c2)ccc1O | < 0.6 |

test system: Human immunodeficiency virus 1; assay: Antiviral activity against HIV1 harboring RT Y181C mutant infected in human MT4 cells assessed as protection against virus-induced cytopathic effect by MTT assay; type: functional, organism-based; conditions: Human immunodeficiency virus 1, MT4

| Structure (SMILES) | EC50 [nM] |
| --- | --- |
| Cc1cc(C)cc(S(=O)(=O)c2c(C(=O)NC(C)c3cccc(O)c3)[nH]c3ccc(Cl)cc23)c1 (centres undefined) | 10 |
| Cc1cc(C)cc(S(=O)(=O)c2c(C(=O)NCc3ccc(O)c(O)c3)[nH]c3ccc(Cl)cc23)c1 | 4.1 |
| COc1cc(CNC(=O)c2[nH]c3ccc(Cl)cc3c2S(=O)(=O)c2cc(C)cc(C)c2)ccc1O | 2 |

test system: Human immunodeficiency virus 1; assay: Resistance index, ratio of EC50 for antiviral activity against HIV1 harboring RT Y188L mutant infected in human MT4 cells to EC50 for antiviral activity against HIV1 NL4-3 infected in human MT4 cells; type: functional; conditions: not given

| Structure (SMILES) | Ratio EC50 |
| --- | --- |
| Cc1cc(C)cc(S(=O)(=O)c2c(C(=O)NC(C)c3cccc(O)c3)[nH]c3ccc(Cl)cc23)c1 (centres undefined) | 237 |
| Cc1cc(C)cc(S(=O)(=O)c2c(C(=O)NCc3ccc(O)c(O)c3)[nH]c3ccc(Cl)cc23)c1 | >100 |
| COc1cc(CNC(=O)c2[nH]c3ccc(Cl)cc3c2S(=O)(=O)c2cc(C)cc(C)c2)ccc1O | 367 |

test system: Human immunodeficiency virus 1; assay: Resistance index, ratio of EC50 for antiviral activity against HIV1 harboring RT K103N/Y181C double mutant infected in human MT4 cells to EC50 for antiviral activity against HIV1 NL4-3 infected in human MT4 cells; type: functional; conditions: not given

| Structure (SMILES) | Ratio EC50 |
| --- | --- |
| Cc1cc(C)cc(S(=O)(=O)c2c(C(=O)NC(C)c3cccc(O)c3)[nH]c3ccc(Cl)cc23)c1 (centres undefined) | 857 |
| Cc1cc(C)cc(S(=O)(=O)c2c(C(=O)NCc3ccc(O)c(O)c3)[nH]c3ccc(Cl)cc23)c1 | >4624 |
| COc1cc(CNC(=O)c2[nH]c3ccc(Cl)cc3c2S(=O)(=O)c2cc(C)cc(C)c2)ccc1O | 1871 |

test system: Human immunodeficiency virus 1; assay: Resistance index, ratio of EC50 for antiviral activity against HIV1 harboring RT Y181C mutant infected in human MT4 cells to EC50 for antiviral activity against HIV1 NL4-3 infected in human MT4 cells; type: functional; conditions: not given

| Structure (SMILES) | Ratio EC50 |
| --- | --- |
| Cc1cc(C)cc(S(=O)(=O)c2c(C(=O)NC(C)c3cccc(O)c3)[nH]c3ccc(Cl)cc23)c1 (centres undefined) | 14 |
| Cc1cc(C)cc(S(=O)(=O)c2c(C(=O)NCc3ccc(O)c(O)c3)[nH]c3ccc(Cl)cc23)c1 | >5.9 |
| COc1cc(CNC(=O)c2[nH]c3ccc(Cl)cc3c2S(=O)(=O)c2cc(C)cc(C)c2)ccc1O | 3.3 |

test system: not listed separately; assay: Cytotoxicity against human MT-4 cells assessed as reduction in cell viability by MTT assay; type: cell-based, MT4; conditions: not given

| Structure (SMILES) | CC50 [nM] |
| --- | --- |
| Cc1cc(C)cc(S(=O)(=O)c2c(C(=O)NC(C)c3cccc(O)c3)[nH]c3ccc(Cl)cc23)c1 (centres undefined) | 16000 |
| Cc1cc(C)cc(S(=O)(=O)c2c(C(=O)NCc3ccc(O)c(O)c3)[nH]c3ccc(Cl)cc23)c1 | 18300 |
| COc1cc(CNC(=O)c2[nH]c3ccc(Cl)cc3c2S(=O)(=O)c2cc(C)cc(C)c2)ccc1O | 28700 |
| O=C1Nc2ccc(Cl)cc2[C@@](C#CC2CC2)(C(F)(F)F)O1 [EFAVIRENZ] | > 15800 |

test system: not listed separately; assay: Selectivity ratio of CC50 for human MT4 cells to EC50 for antiviral activity against HIV-1 NL4-3 infected in human MT4 cells; type: toxicity, cell-based; conditions: read-out: Ratio CC50/EC50

| Structure (SMILES) | selectivity ratio |
| --- | --- |
| Cc1cc(C)cc(S(=O)(=O)c2c(C(=O)NC(C)c3cccc(O)c3)[nH]c3ccc(Cl)cc23)c1 (centres undefined) | > 22800 |
| Cc1cc(C)cc(S(=O)(=O)c2c(C(=O)NCc3ccc(O)c(O)c3)[nH]c3ccc(Cl)cc23)c1 | > 26200 |
| COc1cc(CNC(=O)c2[nH]c3ccc(Cl)cc3c2S(=O)(=O)c2cc(C)cc(C)c2)ccc1O | > 47800 |

test system: Human immunodeficiency virus 1; assay: Antiviral activity against HIV-1 NL4-3 infected in human MT-4 cells assessed as virus induced cytopathic effect by MTT assay; type: functional, organism-based; conditions: Human immunodeficiency virus 1, NL4-3, MT4

| Structure (SMILES) | EC50 [nM] |
| --- | --- |
| Cc1cc(C)cc(S(=O)(=O)c2c(C(=O)NC(C)c3cccc(O)c3)[nH]c3ccc(Cl)cc23)c1 (centres undefined) | < 0.7 |
| Cc1cc(C)cc(S(=O)(=O)c2c(C(=O)NCc3ccc(O)c(O)c3)[nH]c3ccc(Cl)cc23)c1 | < 0.7 |
| COc1cc(CNC(=O)c2[nH]c3ccc(Cl)cc3c2S(=O)(=O)c2cc(C)cc(C)c2)ccc1O | < 0.6 |

test system: Human immunodeficiency virus 1; assay: Antiviral activity against HIV1 harboring RT Y188L mutant infected in human MT4 cells assessed as protection against virus-induced cytopathic effect by MTT assay; type: functional, organism-based; conditions: Human immunodeficiency virus 1, MT4

| Structure (SMILES) | EC50 [nM] |
| --- | --- |
| Cc1cc(C)cc(S(=O)(=O)c2c(C(=O)NC(C)c3cccc(O)c3)[nH]c3ccc(Cl)cc23)c1 (centres undefined) | 166 |
| Cc1cc(C)cc(S(=O)(=O)c2c(C(=O)NCc3ccc(O)c(O)c3)[nH]c3ccc(Cl)cc23)c1 | 70 |
| COc1cc(CNC(=O)c2[nH]c3ccc(Cl)cc3c2S(=O)(=O)c2cc(C)cc(C)c2)ccc1O | 220 |
